Among the data in ChEMBL document CHEMBL5291721, “A preclinical secondary pharmacology resource illuminates target-adverse drug reaction associations of marketed drugs” (Nat Commun, 2023) are AC50 values, retold here.

Assay [1] concerns the target T1, Alpha-1A adrenergic receptor (Homo sapiens, UniProt P35348).
T1 sequence (P35348 whole entry): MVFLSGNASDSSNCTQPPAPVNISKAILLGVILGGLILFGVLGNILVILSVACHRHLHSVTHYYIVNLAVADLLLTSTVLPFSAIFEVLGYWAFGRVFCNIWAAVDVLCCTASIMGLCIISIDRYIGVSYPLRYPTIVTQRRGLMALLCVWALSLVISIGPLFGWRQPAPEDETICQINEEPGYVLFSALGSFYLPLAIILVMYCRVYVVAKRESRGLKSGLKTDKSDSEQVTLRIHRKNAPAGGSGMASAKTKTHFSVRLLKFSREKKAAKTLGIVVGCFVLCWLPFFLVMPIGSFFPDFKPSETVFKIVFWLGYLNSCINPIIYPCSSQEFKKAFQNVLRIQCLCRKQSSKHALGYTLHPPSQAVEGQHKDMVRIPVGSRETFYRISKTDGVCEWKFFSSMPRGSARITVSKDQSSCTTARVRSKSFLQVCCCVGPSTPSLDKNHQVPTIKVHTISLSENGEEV
Format: functional, cell-based.

Assay [2] deals with T2, Muscarinic acetylcholine receptor M1 (Homo sapiens, UniProt P11229).
T2 sequence (P11229 whole entry): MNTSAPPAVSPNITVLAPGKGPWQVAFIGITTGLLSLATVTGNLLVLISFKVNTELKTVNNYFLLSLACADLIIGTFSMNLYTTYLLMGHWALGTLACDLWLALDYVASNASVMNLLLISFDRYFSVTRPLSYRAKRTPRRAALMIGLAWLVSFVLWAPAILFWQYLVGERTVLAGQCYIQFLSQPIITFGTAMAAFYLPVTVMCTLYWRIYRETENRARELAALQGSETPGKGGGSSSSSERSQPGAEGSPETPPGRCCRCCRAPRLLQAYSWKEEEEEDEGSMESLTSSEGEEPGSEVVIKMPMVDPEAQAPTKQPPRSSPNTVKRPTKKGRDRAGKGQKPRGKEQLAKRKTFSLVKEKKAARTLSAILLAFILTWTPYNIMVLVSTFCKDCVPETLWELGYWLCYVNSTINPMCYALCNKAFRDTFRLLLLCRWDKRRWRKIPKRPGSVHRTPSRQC
Format: functional, cell-based.

Assay [3] deals with D(1A) dopamine receptor (Homo sapiens, UniProt P21728).
Chain of D(1A) dopamine receptor (P21728 whole entry): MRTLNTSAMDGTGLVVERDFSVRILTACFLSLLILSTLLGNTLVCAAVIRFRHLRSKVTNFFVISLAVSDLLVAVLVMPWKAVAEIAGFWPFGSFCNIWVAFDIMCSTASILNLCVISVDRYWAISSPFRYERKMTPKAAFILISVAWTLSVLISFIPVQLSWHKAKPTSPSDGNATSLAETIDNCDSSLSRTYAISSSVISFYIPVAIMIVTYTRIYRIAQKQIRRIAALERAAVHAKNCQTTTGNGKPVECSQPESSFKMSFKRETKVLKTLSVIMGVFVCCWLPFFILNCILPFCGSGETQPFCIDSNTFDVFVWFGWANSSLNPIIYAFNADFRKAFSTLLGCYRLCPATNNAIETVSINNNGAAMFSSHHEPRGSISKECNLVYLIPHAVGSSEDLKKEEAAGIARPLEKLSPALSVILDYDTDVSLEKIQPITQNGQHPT
The target of assay [4] is T3, 5-hydroxytryptamine receptor 1A (Homo sapiens, UniProt P08908).
T3 sequence (P08908 whole entry): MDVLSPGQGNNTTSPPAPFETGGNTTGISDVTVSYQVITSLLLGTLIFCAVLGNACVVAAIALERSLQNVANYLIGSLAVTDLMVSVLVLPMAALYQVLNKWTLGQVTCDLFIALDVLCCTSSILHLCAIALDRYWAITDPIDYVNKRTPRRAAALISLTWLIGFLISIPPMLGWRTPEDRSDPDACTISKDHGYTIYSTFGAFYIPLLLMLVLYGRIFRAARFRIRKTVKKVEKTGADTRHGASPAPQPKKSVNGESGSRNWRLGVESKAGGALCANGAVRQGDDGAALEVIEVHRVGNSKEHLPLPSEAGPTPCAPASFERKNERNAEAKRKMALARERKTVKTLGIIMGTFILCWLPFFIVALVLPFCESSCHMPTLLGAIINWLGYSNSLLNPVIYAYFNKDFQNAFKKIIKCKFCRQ

The target of assay [5] is 3',5'-cyclic-AMP phosphodiesterase 4A (Homo sapiens, UniProt P27815). Format: functional.
Chain of 3',5'-cyclic-AMP phosphodiesterase 4A (P27815 whole entry): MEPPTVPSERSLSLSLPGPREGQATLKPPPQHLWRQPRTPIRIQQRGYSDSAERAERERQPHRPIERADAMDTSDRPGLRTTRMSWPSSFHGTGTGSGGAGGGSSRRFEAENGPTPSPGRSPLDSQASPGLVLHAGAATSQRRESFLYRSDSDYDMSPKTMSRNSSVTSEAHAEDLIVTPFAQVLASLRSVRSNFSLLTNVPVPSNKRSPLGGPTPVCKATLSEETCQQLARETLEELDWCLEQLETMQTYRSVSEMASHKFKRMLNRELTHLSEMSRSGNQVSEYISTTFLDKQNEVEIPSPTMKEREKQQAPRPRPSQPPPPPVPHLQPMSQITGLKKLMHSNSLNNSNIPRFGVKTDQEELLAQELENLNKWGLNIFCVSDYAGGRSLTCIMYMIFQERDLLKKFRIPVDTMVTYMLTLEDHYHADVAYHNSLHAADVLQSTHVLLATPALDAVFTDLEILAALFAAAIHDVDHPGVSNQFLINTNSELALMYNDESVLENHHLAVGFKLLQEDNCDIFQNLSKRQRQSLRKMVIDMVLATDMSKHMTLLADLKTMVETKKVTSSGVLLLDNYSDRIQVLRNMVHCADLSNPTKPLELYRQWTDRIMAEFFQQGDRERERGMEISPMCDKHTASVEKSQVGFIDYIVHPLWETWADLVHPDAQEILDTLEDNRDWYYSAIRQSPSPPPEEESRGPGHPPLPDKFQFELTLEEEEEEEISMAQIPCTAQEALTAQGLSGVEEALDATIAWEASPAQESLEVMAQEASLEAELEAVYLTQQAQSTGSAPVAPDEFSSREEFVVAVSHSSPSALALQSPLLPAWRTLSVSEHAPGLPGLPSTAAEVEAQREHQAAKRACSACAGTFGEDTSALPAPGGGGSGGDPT
In assay [6] the target is T4, Progesterone receptor (Homo sapiens, UniProt P06401).
T4 sequence (P06401 whole entry): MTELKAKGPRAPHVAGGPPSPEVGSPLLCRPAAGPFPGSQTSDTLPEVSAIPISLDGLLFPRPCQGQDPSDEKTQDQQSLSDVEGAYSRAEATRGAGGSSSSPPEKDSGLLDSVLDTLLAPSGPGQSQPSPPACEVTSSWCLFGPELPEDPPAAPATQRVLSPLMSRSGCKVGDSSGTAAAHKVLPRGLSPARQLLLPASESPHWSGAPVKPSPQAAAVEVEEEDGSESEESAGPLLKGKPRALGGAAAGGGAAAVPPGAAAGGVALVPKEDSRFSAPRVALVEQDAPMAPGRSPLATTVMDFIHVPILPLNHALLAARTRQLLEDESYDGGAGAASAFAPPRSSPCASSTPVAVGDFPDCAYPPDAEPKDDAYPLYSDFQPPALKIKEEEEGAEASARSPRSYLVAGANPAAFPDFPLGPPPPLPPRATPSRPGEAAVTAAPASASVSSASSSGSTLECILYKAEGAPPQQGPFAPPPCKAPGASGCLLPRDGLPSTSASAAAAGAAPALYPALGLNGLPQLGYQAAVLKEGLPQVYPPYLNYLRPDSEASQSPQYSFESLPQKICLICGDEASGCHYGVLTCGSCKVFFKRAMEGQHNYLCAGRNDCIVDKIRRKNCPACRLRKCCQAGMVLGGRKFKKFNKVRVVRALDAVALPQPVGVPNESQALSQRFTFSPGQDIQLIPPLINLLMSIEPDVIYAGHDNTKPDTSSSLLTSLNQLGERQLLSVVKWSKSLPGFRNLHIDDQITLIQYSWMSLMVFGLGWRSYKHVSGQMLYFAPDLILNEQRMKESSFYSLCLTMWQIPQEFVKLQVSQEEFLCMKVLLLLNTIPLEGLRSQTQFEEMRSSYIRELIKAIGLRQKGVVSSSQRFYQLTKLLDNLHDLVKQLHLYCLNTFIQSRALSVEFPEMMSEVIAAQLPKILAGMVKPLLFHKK

The target in assay [7] is Sodium-dependent noradrenaline transporter (Homo sapiens, UniProt P23975).
Chain of Sodium-dependent noradrenaline transporter (P23975 whole entry): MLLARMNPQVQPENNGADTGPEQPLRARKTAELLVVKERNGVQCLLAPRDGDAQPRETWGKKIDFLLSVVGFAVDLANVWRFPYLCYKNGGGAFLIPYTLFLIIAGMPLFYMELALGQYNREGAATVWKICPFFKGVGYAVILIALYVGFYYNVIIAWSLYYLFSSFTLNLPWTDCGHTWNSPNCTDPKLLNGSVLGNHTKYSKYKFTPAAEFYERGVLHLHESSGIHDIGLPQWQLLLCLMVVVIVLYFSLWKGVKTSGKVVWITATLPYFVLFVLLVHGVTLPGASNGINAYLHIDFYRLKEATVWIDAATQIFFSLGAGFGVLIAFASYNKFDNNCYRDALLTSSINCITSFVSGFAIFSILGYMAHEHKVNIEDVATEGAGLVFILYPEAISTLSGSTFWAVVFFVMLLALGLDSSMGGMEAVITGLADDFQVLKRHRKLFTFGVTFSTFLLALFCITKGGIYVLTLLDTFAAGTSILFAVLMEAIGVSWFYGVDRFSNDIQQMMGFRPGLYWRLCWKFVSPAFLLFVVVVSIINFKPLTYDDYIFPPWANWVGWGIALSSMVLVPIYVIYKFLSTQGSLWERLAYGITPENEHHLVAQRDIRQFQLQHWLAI
For assay [8], the target named is Sodium-dependent dopamine transporter (Homo sapiens, UniProt Q01959).
Chain of Sodium-dependent dopamine transporter (Q01959 whole entry): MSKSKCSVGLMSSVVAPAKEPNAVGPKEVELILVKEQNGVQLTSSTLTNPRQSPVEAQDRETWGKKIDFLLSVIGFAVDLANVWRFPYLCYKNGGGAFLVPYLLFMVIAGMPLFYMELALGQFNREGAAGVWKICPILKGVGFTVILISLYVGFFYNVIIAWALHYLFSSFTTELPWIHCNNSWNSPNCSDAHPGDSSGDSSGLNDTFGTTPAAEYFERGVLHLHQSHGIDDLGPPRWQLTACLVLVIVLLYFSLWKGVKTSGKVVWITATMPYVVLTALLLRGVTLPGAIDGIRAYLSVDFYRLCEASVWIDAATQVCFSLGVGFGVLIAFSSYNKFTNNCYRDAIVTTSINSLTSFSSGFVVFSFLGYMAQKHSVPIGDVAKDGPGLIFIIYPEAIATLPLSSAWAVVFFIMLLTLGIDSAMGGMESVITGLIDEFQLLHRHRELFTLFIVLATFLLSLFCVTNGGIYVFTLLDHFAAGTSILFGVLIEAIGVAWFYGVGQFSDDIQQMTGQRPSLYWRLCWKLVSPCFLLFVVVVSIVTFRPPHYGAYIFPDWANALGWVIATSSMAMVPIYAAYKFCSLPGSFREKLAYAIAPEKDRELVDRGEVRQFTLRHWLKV
Assay [9] addresses Sodium-dependent serotonin transporter (Homo sapiens, UniProt P31645).
In assay [10] the target is T5, Thromboxane A2 receptor (Homo sapiens, UniProt P21731).
T5 sequence (P21731 whole entry): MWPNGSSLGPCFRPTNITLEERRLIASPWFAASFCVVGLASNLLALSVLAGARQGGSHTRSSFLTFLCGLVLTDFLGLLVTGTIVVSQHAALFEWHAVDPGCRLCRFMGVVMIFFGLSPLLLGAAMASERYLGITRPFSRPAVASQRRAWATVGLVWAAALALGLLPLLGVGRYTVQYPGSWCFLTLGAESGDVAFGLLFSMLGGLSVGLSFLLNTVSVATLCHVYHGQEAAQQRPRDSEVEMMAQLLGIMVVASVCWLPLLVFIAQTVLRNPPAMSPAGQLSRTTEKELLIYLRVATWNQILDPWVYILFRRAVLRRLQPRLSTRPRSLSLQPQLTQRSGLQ
Format: functional, cell-based.
Note: assay procedure not described here.

Chain of Sodium-dependent serotonin transporter (P31645 whole entry): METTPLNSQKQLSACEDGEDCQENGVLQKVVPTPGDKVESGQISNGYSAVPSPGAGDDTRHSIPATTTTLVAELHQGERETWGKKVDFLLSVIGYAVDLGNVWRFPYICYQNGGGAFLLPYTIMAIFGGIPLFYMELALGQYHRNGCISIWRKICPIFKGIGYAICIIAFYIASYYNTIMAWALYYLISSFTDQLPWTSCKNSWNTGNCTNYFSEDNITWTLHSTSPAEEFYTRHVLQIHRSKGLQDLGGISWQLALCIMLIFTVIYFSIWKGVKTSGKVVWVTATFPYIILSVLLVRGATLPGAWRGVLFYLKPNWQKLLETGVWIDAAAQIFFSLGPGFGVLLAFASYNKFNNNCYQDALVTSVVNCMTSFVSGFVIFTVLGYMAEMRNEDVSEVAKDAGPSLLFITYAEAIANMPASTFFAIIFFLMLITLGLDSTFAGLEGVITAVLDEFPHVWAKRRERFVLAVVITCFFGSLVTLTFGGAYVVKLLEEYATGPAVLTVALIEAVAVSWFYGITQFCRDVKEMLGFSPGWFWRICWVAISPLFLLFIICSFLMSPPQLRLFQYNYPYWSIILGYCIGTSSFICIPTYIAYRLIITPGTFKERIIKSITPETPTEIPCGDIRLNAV

As usually defined, the AC50 is the concentration giving half of the maximal activity seen. Take `NC1CCN(c2c(F)cc3c(=O)c(C(=O)O)cn(C4CC4)c3c2Cl)C1` (stereo not given) [CLINAFLOXACIN]: the AC50 in assay [1], in assay [2], in assay [3], in assay [4], in assay [5] and in [6] was greater than 30 µM each time. For the same compound, the AC50 in assay [7], in assay [8], in assay [9] and in [10] was greater than 30 µM each time.
As for `CC(C)(C)CC(C)(C)c1ccc(O)c(Cc2ccc(Cl)cc2Cl)c1` [CLOFOCTOL], the concentration at half-maximal activity (AC50) was greater than 30 µM in [1]; greater than 30 µM in assay [2]; 29.7 µM in [3]; greater than 30 µM in assay [4]; 5.93 µM in [5]; 1.15 µM in assay [6]. Further, the AC50 was 3.4 µM in assay [7], 3.54 µM in assay [8], 5.43 µM in [9] and greater than 30 µM in [10].
`Clc1ccc(C(OCCN2CCCCC2)c2ccccc2)cc1` (stereo not given) [CLOPERASTINE]: the concentration at half-maximal activity (AC50) in [1] is greater than 30 µM; in [2] it was greater than 30 µM; in [3], 5.96 µM; in assay [4], 20.1 µM; in assay [5] it was greater than 30 µM; in [6] it was greater than 30 µM. Also, the AC50 in [7] turned out to be 6.39 µM; in assay [8], 1.09 µM; in assay [9], 15.4 µM; in assay [10], 17 µM.
For the compound `CN1CCN(C2=Nc3ccccc3Sc3ccc(Cl)cc32)CC1` [CLOTHIAPINE], the half-maximal activity concentration (AC50) in [1] is greater than 10 µM; in assay [2], greater than 10 µM; in [3], 0.0061 µM; in assay [4], 12.1 µM; in assay [5], greater than 30 µM; in assay [6], greater than 30 µM. The half-maximal activity concentration (AC50) is 0.76 µM in assay [7], 3.62 µM in [8], 4.87 µM in assay [9] and greater than 10 µM in [10].
As to `CC(=O)OCC(=O)[C@@]1(O)CC[C@H]2[C@@H]3CCC4=CC(=O)C=C[C@]4(C)[C@@]3(Cl)[C@@H](Cl)C[C@@]21C` [DICHLORISONE ACETATE], the concentration at half-maximal activity (AC50) in assay [1] is greater than 30 µM; in [2], greater than 30 µM; in [3], greater than 30 µM; in assay [4], greater than 30 µM; in assay [5] it was greater than 30 µM; in [6], 0.173 µM. Besides, the concentration at half-maximal activity (AC50) in assay [7], in assay [8], in assay [9] and in assay [10] was greater than 30 µM each time.
With `CC(C)C[C@H]1C(=O)N2CCC[C@H]2[C@]2(O)O[C@](NC(=O)[C@@H]3C[C@@H]4c5cccc6[nH]cc(c56)C[C@H]4N(C)C3)(C(C)C)C(=O)N12` [DIHYDROERGOCRYPTINE], the half-maximal activity concentration (AC50) in assay [1] is 5.77 µM; in [2], greater than 30 µM; in assay [3] it was 0.597 µM; in assay [4] it was 0.0125 µM; in [5] it was greater than 30 µM; in assay [6] it was greater than 30 µM. For the same compound, the AC50 in [7], in assay [8], in [9] and in [10] was greater than 30 µM each time.
For `CCN(CC)CCOC(=O)C(c1ccccc1)C1CCCCC1` (stereo not given) [DROFENINE], the AC50 in assay [1] was greater than 30 µM; in assay [2], greater than 30 µM; in assay [3], 13.7 µM; in assay [4], 2.71 µM; in assay [5] it was greater than 30 µM; in [6], greater than 30 µM. Also, the AC50 in assay [7] was 13 µM; in assay [8] it was 0.219 µM; in [9], greater than 30 µM; in [10], greater than 30 µM.
Consider `COc1ccc(C(=O)Nc2ccccc2CCC2CCCCN2C)cc1` (stereo not given) [ENCAINIDE], for which the AC50 in assay [1] was greater than 30 µM; in assay [2], greater than 30 µM; in [3] it was 26.9 µM; in [4], greater than 30 µM; in assay [5], greater than 30 µM; in [6], greater than 30 µM. The AC50 in [7], in assay [8], in assay [9] and in assay [10] was greater than 30 µM each time.
For the compound `NC1=NCC2c3ccccc3Cc3ccccc3N12` (stereo not given) [EPINASTINE], the AC50 in [1] was greater than 30 µM; in assay [2], greater than 30 µM; in assay [3] it was 0.125 µM; in [4], 1.28 µM; in [5], greater than 30 µM; in assay [6], greater than 30 µM. Moreover, the AC50 in assay [7] was 4.58 µM; in [8], greater than 30 µM; in assay [9] it was 10.3 µM; in assay [10], greater than 30 µM.
As to `CC(=O)Oc1ccc2c(c1)CC[C@@H]1[C@@H]2CC[C@]2(C)[C@@H](O)CC[C@@H]12` [ESTRADIOL ACETATE], the half-maximal activity concentration (AC50) in assay [1] is greater than 30 µM; in assay [2], greater than 30 µM; in assay [3] it was greater than 30 µM; in [4] it was greater than 30 µM; in assay [5], greater than 30 µM; in assay [6], 0.209 µM. For the same compound, the AC50 was greater than 30 µM in assay [7], 8.09 µM in assay [8], greater than 30 µM in assay [9] and 13.1 µM in [10].
`CCOc1ccccc1C(N)=O` [ETHENZAMIDE]: the half-maximal activity concentration (AC50) in assay [1], in assay [2], in [3], in [4], in [5] and in assay [6] was greater than 30 µM each time. The AC50 in assay [7], in assay [8], in assay [9] and in assay [10] was greater than 30 µM each time.
